Legend:
T-lymphoblast (LT) cells = experiment: Proliferation of T-lymphoblast cells; format: cell-based, mouse
[1] = test system: control fertilized oocytes unexposed to UV light; experiment: Development of control embryos unexposed to UV light incubated with the compounds (dysmorphogen test); settings: control fertilized oocytes unexposed to UV light incubated with the compound
Method: (§1) Several hundred spawned eggs were fertilized in vitro and incubated at 16 to 18° C. […] The vegetal surfaces of some of these embryos were irradiated with one or the other sources of UV light within 10 min of fertilization for 20-30 min. […] The embryos were not disturbed, touched or tipped from the moment of fertilization, during UV irradiation or for the duration of development. […] A score of 5 defines a normal dorsal axis, 4 a microcephalic, 3 a cyclopic, 2 an anoptic, 1 an acephalic and 0 an adorsal embryo.
The biological activities of biliverdin and its derivatives were tested by adding each of them to the incubation solution of embryos after the termination of the UV light exposure to either 254 or 366 nm UV light and at selected time periods between T ƒfm=0.4-2.5. Final concentrations of biliverdin ranged from 0.05 to 5 μM in less than 1% ethanol. […] The extent of dorsal axis formation was analyzed by the morphological criteria described above.
Stage 1 embryos were exposed to UV-light source emitting at 366 nm (Mineralight UVSL-58, Ultraviolet Products, Inc., San Gabriel, Calif.) as described and then incubated in the presence of pure candidate DCD or commercially available biliverdin (Sigma-Aldrich, St. Louis, Mo.) at final concentrations from 0.05 to 1.2 μM in less than 1% ethanol. The concentrations were calculated using a molar extinction coefficient of 51,000. […]

[2] = Photo transformation of biliverdin by UV irradiation of embryos (HPLC peak area); format: physicochemical, Xenopus laevis
Method: The cytoplasmic yolk platelet fraction that was photo transformed by UV light was identified in extracts of about 250 embryos irradiated with 366 nm UV light. The chromatogram of irradiated embryo extracts was compared to that of the non-irradiated ones to identify the photo transformed fraction. Once the retention time of the UV sensitive fraction was determined, the parent chemical species was isolated from control egg extracts. To confirm its UV sensitivity, an aliquot of the pertinent HPLC fraction in 44% acetonitrile and 3 mM ammonium acetate, pH 4.5, was irradiated in a cuvette in a Varian-Cary Bio 50 spectrophotometer at 366 nm. The pH was chosen to approximate that of intact yolk platelets. The wavelength was selected on the basis of the absorption spectra of the target fraction. The absorbance change was monitored at 375 nm. […]
After UV irradiation, a set of embryos from each group were collected, dejellied with 2% L-cysteine, 0.16M NaOH and washed extensively in 20% Steimberg's buffer. […] The bilins and retinoids in each batch were extracted, separated and analyzed as described. […] The gross morphological appearance of each individual embryo was evaluated by light microscopy. The developmental teratology characteristic of the “UV syndrome,” was scored by standard criteria and categorized into the five groups comprising the “index of axis deficiency”. […]

[3] = test system: UV-irradiated Xenopus laevis stage 1 embryos; experiment: Rescue of dorsal axis formation in UV-irradiated embryos, scored by dorsal anterior index (DAI); format: in vivo
Method: as §1
The biological activities of biliverdin and its derivatives were tested by adding each of them to the incubation solution of embryos after the termination of the UV light exposure to either 254 or 366 nm UV light and at selected time periods between T ƒfm=0.4-2.5. Final concentrations of biliverdin ranged from 0.05 to 5 μM in less than 1% ethanol. […] An extinction coefficient of 51,000 was utilized to calculate their concentrations. All petri dishes were covered with aluminum foil to avoid light exposure. The extent of dorsal axis formation was analyzed by the morphological criteria described above.
Stage 1 embryos were exposed to UV-light source emitting at 366 nm (Mineralight UVSL-58, Ultraviolet Products, Inc., San Gabriel, Calif.) as described and then incubated in the presence of pure candidate DCD or commercially available biliverdin (Sigma-Aldrich, St. Louis, Mo.) at final concentrations from 0.05 to 1.2 μM in less than 1% ethanol. The concentrations were calculated using a molar extinction coefficient of 51,000. One group of embryos was not exposed to UV light but was incubated in the presence of 0.5 μM of candidate DCD.

[4] = target: T1, aryl hydrocarbon receptor (AhR) (Homo sapiens, UniProt P35869); settings: μM range / concentrations used here (Phelan 1998); cited from earlier work
T1 sequence (P35869 11-848): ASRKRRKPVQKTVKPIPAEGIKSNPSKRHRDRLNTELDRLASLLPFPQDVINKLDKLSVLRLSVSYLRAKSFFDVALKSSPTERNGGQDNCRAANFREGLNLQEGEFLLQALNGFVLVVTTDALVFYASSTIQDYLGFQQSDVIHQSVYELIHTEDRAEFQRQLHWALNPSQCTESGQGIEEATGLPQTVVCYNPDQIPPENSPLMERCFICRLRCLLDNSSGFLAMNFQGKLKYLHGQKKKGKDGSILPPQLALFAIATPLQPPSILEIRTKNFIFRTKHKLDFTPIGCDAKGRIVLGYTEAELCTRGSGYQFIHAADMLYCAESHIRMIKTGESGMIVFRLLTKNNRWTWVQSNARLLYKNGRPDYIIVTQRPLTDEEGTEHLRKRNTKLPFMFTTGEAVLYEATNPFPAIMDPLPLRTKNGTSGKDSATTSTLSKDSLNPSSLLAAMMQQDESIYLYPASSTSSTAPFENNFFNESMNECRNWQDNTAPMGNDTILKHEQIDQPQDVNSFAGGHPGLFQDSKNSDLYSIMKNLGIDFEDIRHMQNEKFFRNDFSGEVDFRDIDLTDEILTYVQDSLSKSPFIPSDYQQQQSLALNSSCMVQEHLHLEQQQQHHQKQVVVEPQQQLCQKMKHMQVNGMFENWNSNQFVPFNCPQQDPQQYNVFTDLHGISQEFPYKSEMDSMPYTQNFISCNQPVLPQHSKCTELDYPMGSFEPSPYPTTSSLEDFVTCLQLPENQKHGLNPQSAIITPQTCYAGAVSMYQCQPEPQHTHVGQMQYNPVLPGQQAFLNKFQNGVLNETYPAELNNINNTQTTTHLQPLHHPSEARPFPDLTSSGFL

[5] = UV exposed embryos incubated with the intact tetrapyrrole

In the case of `C=CC1=C(C)/C(=C/C2=NC(=C\c3[nH]c(/C=C4\NC(=O)C(C)=C4C=C)c(C)c3CCC(=O)O)/C(CCC(=O)O)=C2C)NC1=O` [Biliverdin, biliverdin IXα], the “time until proliferation ceases” value (T-lymphoblast (LT) cells) is reported as “within one day”, the “time until cell division resumes at nearly the control rate” value (T-lymphoblast (LT) cells; still exposed) is reported as 3 to 4 days and the “average DAI of control embryos” value [1] is reported as 5. The “share of the 23.3 min peak area photo transformed by UV irradiation” value ([2]; embryos irradiated with 366 nm UV light, typical experiment) was greater than 67%, the “decrease of content after UV irradiation” value ([2]; pre-cleavage embryos exposed to 358 nm for 10 min) was 50% and the “embryos scored with a DAI between 5-4” value ([3]; 254 nm UV light, treated with biliverdin) was “About 51%”. For the same molecule, the “concentration at which plateau of recovery is reached” value ([3]; 254 or 366 nm UV light, FIG. 3C) was 1.2 µM, the “recovery of dorsal axial structures” value ([3]; 254 or 366 nm UV-irradiated embryos, μM amounts) was “recover to form dorsal axial structures” and the “embryos that recover and are scored with 4-5” value ([3]; 366 nm UV light, incubated with biliverdin) was roughly 55%. For the same molecule, the “embryos that do not develop dorsal structures, DAI of 0” value [3, 5] was 20 to 30%, the “tadpoles that develop with DAI scores of 5 or 4” value [3, 5] was “About 55%” and the “degree of recovery of dorsal axis formation relative to oocyte biliverdin” value ([3]; UV-irradiated embryos, FIG. 2E) was “comparable”. For the same molecule, the “Average DAI score” value ([3]; embryos irradiated with 254 nm UV light, treated with biliverdin, DAI 5 normal, 0 adorsal) was 2.72, the “Average DAI score” value ([3]; embryos irradiated with 366 nm UV light, incubated with biliverdin, total population) was 3.08 and the “activation of the aryl hydrocarbon receptor” value [4] was “binds and is activated”.
